{"source": "patent US4174390A", "about": "“Antibiotic A-7413 and process for preparation thereof” (Eli Lilly and Company, priority 1978, dated 1979)", "key": {"[1]": {"test_system": "Staphylococcus aureus strains", "assay": "standard agar-dilution tests (ICS method), S. aureus strains", "assay_type": "cell-based", "procedure": "A special advantage of the A-7413 compounds is their ability to inhibit organisms which are resistant to other antibiotics. In Table V are summarized the results of standard agar-dilution tests (using the ICS method) wherein A-7413 factor A was tested against a variety of Staphylococcus aureus strains. Results are given as the minimal inhibitory concentration (MIC) at which inhibition of the S. aureus strain occurred. The results obtained with the known antibiotic vancomycin in the same test are included for comparison."}, "[2]": {"test_system": "Streptococcus species", "assay": "agar-dilution tests, penicillin-G-resistant Group-D-Streptococcus strains", "assay_type": "cell-based, Streptococcus sp.", "procedure": "In Table VI are summarized the results of agar-dilution tests wherein A-7413 factor A was tested against a variety of Streptococcus species. These tests employed trypticase-soy agar plus blood, 10^-2 dilution of an overnight broth culture in 0.3% agar as an inoculum, giving approximately 5,000 bacteria per 7.5-mm of agar surface. Again, the results for vancomycin in the same test are reported for comparison. All strains tested are penicillin-G-resistant, Group-D-Streptococcus strains."}}}
{"smiles": "CN[C@H](CC(C)C)C(=O)N[C@H]1C(=O)N[C@@H](CC(N)=O)C(=O)N[C@H]2C(=O)N[C@H]3C(=O)N[C@H](C(=O)N[C@H](C(=O)O)c4cc(O)cc(O)c4-c4cc3ccc4O)[C@H](O)c3ccc(c(Cl)c3)Oc3cc2cc(c3O[C@@H]2O[C@H](CO)[C@@H](O)[C@H](O)[C@H]2O[C@H]2C[C@](C)(N)[C@H](O)[C@H](C)O2)Oc2ccc(cc2Cl)[C@H]1O", "note": "[Vancomycin, vancomycin]", "values": [{"measurement": "MIC", "setting": "[1]; S. aureus strain 3055, penicillin G susceptible", "value": 1, "unit": "µg/mL"}, {"measurement": "MIC", "setting": "[1]; S. aureus strain 3074, penicillin G resistant, methicillin susceptible", "value": 1, "unit": "µg/mL"}, {"measurement": "MIC", "setting": "[1]; S. aureus strain 3123, penicillin G susceptible", "value": 1, "unit": "µg/mL"}, {"measurement": "MIC", "setting": "[1]; S. aureus strain 3125, penicillin G and methicillin resistant", "value": 1, "unit": "µg/mL"}, {"measurement": "MIC", "setting": "[1]; S. aureus strain 3130, penicillin G and methicillin resistant", "value": 1, "unit": "µg/mL"}, {"measurement": "MIC", "setting": "[1]; S. aureus strain 3131, penicillin G and methicillin resistant", "value": 1, "unit": "µg/mL"}, {"measurement": "MIC", "setting": "[1]; S. aureus strain 3132, penicillin G and methicillin resistant", "value": 1, "unit": "µg/mL"}, {"measurement": "MIC", "setting": "[1]; S. aureus strain 3133, penicillin G and methicillin resistant", "value": 1, "unit": "µg/mL"}, {"measurement": "MIC", "setting": "[1]; S. aureus strain 3134, penicillin G and methicillin resistant", "value": 1, "unit": "µg/mL"}, {"measurement": "MIC", "setting": "[1]; S. aureus strain 3135, penicillin G and methicillin resistant", "value": 0.5, "unit": "µg/mL"}, {"measurement": "MIC", "setting": "[1]; S. aureus strain 3136, penicillin G and methicillin resistant", "value": 0.5, "unit": "µg/mL"}, {"measurement": "MIC", "setting": "[1]; S. aureus strain 3137, penicillin G and methicillin resistant", "value": 1, "unit": "µg/mL"}, {"measurement": "MIC", "setting": "[1]; S. aureus strain 3138, penicillin G and methicillin resistant", "value": 1, "unit": "µg/mL"}, {"measurement": "MIC", "setting": "[1]; S. aureus strain 3139, penicillin G and methicillin resistant", "value": 1, "unit": "µg/mL"}, {"measurement": "MIC", "setting": "[1]; S. aureus strain 3140, penicillin G and methicillin resistant", "value": 0.5, "unit": "µg/mL"}, {"measurement": "MIC", "setting": "[1]; S. aureus strain H43, penicillin G resistant, methicillin susceptible", "value": 1, "unit": "µg/mL"}, {"measurement": "MIC", "setting": "[1]; S. aureus strain H114, penicillin G resistant, methicillin susceptible", "value": 1, "unit": "µg/mL"}, {"measurement": "MIC", "setting": "[1]; S. aureus strain H290, penicillin G susceptible", "value": 1, "unit": "µg/mL"}, {"measurement": "MIC", "setting": "[1]; S. aureus strain H541, penicillin G resistant, methicillin susceptible", "value": 1, "unit": "µg/mL"}, {"measurement": "MIC", "setting": "[2]; Streptococcus sp. strain 238, trypticase-soy agar plus blood", "value": 2, "unit": "µg/mL"}, {"measurement": "MIC", "setting": "[2]; Streptococcus sp. strain 282, trypticase-soy agar plus blood", "value": 2, "unit": "µg/mL"}, {"measurement": "MIC", "setting": "[2]; Streptococcus sp. strain 8043, trypticase-soy agar plus blood", "value": 4, "unit": "µg/mL"}, {"measurement": "MIC", "setting": "[2]; Streptococcus sp. strain 9901, trypticase-soy agar plus blood", "value": 4, "unit": "µg/mL"}, {"measurement": "MIC", "setting": "[2]; Streptococcus sp. strain 9913, trypticase-soy agar plus blood", "value": 2, "unit": "µg/mL"}, {"measurement": "MIC", "setting": "[2]; Streptococcus sp. strain 9933, trypticase-soy agar plus blood", "value": 8, "unit": "µg/mL"}, {"measurement": "MIC", "setting": "[2]; Streptococcus sp. strain 9960, trypticase-soy agar plus blood", "value": 4, "unit": "µg/mL"}, {"measurement": "MIC", "setting": "[2]; Streptococcus sp. strain 12253P, trypticase-soy agar plus blood", "value": 2, "unit": "µg/mL"}, {"measurement": "MIC", "setting": "[2]; Streptococcus sp. strain 55992, trypticase-soy agar plus blood", "value": 4, "unit": "µg/mL"}, {"measurement": "MIC", "setting": "[2]; Streptococcus sp. strain Mitis, trypticase-soy agar plus blood", "value": 4, "unit": "µg/mL"}, {"measurement": "MIC", "setting": "[2]; Streptococcus sp. strain Shrigley, trypticase-soy agar plus blood", "value": 4, "unit": "µg/mL"}]}
